34 molecules from US5135947A, “1-phenyl-3-naphthalenyloxypropanamines and their use as selective serotonin reuptake inhibitors” (Eli Lilly and Company, priority 1990, dated 1992) can be followed below.

Where a name gives a salt, the structure may show the parent alone.

The test system of the first assay is 5HT uptake. Put plainly: Inhibition of 5HT uptake in vitro (synaptosomal uptake of 3H-serotonin, rat cortical synaptosomes). It counts as biochemical, rat (male Sprague-Dawley). Particulars: 50 nM 3H-5HT, cortical synaptosomes, 37° C., 5 min. As to the method: This general procedure is set forth by Wong et al., in Drug Development Research 6:397-403 (1985).
Male Sprague-Dawley rats (110-150 g) from Harlan Industries (Cumberland, Ind.) were fed Purina Chow ad libitum for at least 3 days before being used in the studies. Rats were killed by decapitation. Whole brains were removed and dissected. Cerebral cortex was homogenized in 9 volumes of a medium containing 0.32M sucrose and 10 mM glucose. Crude synaptosomal preparations were isolated after differential centrifugation at 1,000 g for 10 min. and 17,000 g for 28 min. The final pellets were suspended in the same medium and kept in ice until use within the same day.
Synaptosomal uptake of ^3 H-serotonin(^3 H-5-hydroxytryptamine, ^3 H-5HT) was determined as follows. Cortical synaptosomes (equivalent to 1 mg of protein) were incubated at 37° C. for 5 min in 1 ml of Krebs-bicarbonate medium containing also 10 mM glucose, 0.1 mM iproniazid, 1 mM ascorbic acid, 0.17 mM EDTA and 50 nM ^3 H-5HT The reaction mixture was immediately diluted with 2 ml of ice-chilled Krebs-bicarbonatebuffer and filtered under vacuum with a cell harvester (Brandel, Gaithersburg, Md.). Filters were rinsed twice with approximately 5 ml of ice-chilled 0.9% saline and were transferred to a counting vial containing 10 ml of scintillation fluid (PCS, Amersham, Arlington Heights, Ill.). Radioactivity was measured by a liquid scintillation spectrophotometer. Accumulation of ^3 H-5HT at 4° C. represented the background and was subtracted from all samples.
The numbers in parentheses represent percent inhibition at 1000 nM.
The IC50 is the point on the concentration scale where inhibition reaches its midpoint. With `CN(C)C(CCOc1cccc2ccccc12)c1ccccc1` (single isomer, unassigned) [Example 36, (+)-N,N-Dimethyl-1-phenyl-3-(1-naphthalenyloxy)propanamine (+)-tartrate], the IC50 was 0.01 µM.
With `CN(C)C(CCOc1cccc2ccccc12)c1ccccc1` (single isomer, unassigned) [Example 37, (-)-N,N-Dimethyl-1-phenyl-3-(1-naphthalenyloxy)propanamine (-)-tartrate], inhibition was half-maximal at 0.035 µM (IC50).
On the same count and under the same terms, the figure for `Cc1ccc(OCCC(N)c2ccccc2)c2ccccc12` (stereo not shown) [Example 1, 1-Phenyl-3-(4-methyl-1-naphthalenyloxy)propanamine oxalate] is 0.09 µM.
`Cc1ccc(OCCC(c2ccccc2)N(C)C)c2ccccc12` (stereo not shown) [Example 2, N,N-Dimethyl-1-phenyl-3-(4-methyl-1-naphthalenyloxy)propanamine oxalate]: the IC50 worked out at 0.025 µM.
As to `CNC(CCOc1ccc(C)c2ccccc12)c1ccccc1` (stereo not shown) [Example 3, N-Methyl-1-phenyl-3-(4-methyl-1-naphthalenyloxy)propanamine oxalate], 0.037 µM corresponded to half-maximal inhibition (IC50).
Still for that read-out and setting: as for `COc1ccc(OCCC(c2ccccc2)N(C)C)c2ccccc12` (stereo not shown) [Example 5, N,N-Dimethyl-1-phenyl-3-(4-methoxy-1-naphthalenyloxy)propanamine oxalate], the figure is 0.21 µM.
Same read-out and setting: as for `NC(CCOc1cccc2ccccc12)c1ccccc1C(F)(F)F` (stereo not shown) [Example 6, 1-[2-(Trifluoromethyl)phenyl]-3-(1-naphthalenyloxy)propanamine oxalate], the figure is 0.18 µM.
The molecule `CN(C)C(CCOc1cccc2ccccc12)c1ccccc1C(F)(F)F` (stereo not shown) [Example 7, N,N-Dimethyl-1-[2-(trifluoromethyl)phenyl]-3-(1-naphthalenyloxy)propanamineoxalate] gave an IC50 of 0.26 µM.
Consider `CN(C)C(CCOc1cccc2ccccc12)c1cccc(C(F)(F)F)c1` (stereo not shown) [Example 9, N,N-Dimethyl-1-[3-(trifluoromethyl)phenyl]-3-(1-naphthalenyloxy)propanamineoxlate], for which the IC50 was 0.5 µM.
The same measure, in the same setting: the figure for `NC(CCOc1cccc2ccccc12)c1ccccc1Cl` (stereo not shown) [Example 10, 1-(2-Chlorophenyl)-3-(1-naphthalenyloxy)propanamine oxalate] is 0.076 µM; for `CN(C)C(CCOc1cccc2ccccc12)c1ccccc1Cl` (stereo not shown) [Example 11, N,N-Dimethyl-1-(2-chlorophenyl)-3-(1-naphthalenyloxy)propanamine oxalate] it is 0.033 µM; for `NC(CCOc1cccc2ccccc12)c1cccc(Cl)c1` (stereo not shown) [Example 12, 1-(3-Chlorophenyl)-3-(1-naphthalenyloxy)propanamine oxalate] it is 0.15 µM.
`CN(C)C(CCOc1cccc2ccccc12)c1cccc(Cl)c1` (stereo not shown) [Example 13, N,N-Dimethyl-1-(3-chlorophenyl)-3-(1-naphthalenyloxy)propanamine oxalate] gave an IC50 of 0.072 µM.
In turn, `NC(CCOc1cccc2ccccc12)c1ccc(Cl)cc1` (stereo not shown) [Example 14, 1-(4-Chlorophenyl)-3-(1-naphthalenyloxy)propanamine oxalate] gave an IC50 of 0.4 µM.
The molecule `CN(C)C(CCOc1cccc2ccccc12)c1ccc(Cl)cc1` (stereo not shown) [Example 15, N,N-Dimethyl-1-(4-chlorophenyl)-3-(1-naphthalenyloxy)propanamine oxalate] gave an IC50 of 0.11 µM.
The same measure, in the same setting: the figure for `COc1ccc(C(N)CCOc2cccc3ccccc23)cc1` (stereo not shown) [Example 16, 1-(4-Methoxyphenyl)-3-(1-naphthalenyloxy)propanamine oxalate] is 0.1 µM; for `COc1ccc(C(CCOc2cccc3ccccc23)N(C)C)cc1` (stereo not shown) [Example 17, N,N-Dimethyl-1-(4-methoxyphenyl)-3-(1-naphthalenyloxy)propanamine oxalate] it is 0.032 µM; for `COc1cccc(C(N)CCOc2cccc3ccccc23)c1` (stereo not shown) [Example 18, 1-(3-Methoxyphenyl)-3-(1-naphthalenyloxy)propanamine hydrochloride] it is 0.084 µM.
On the same count and under the same terms, the figure for `COc1cccc(C(CCOc2cccc3ccccc23)N(C)C)c1` (stereo not shown) [Example 19, N,N-Dimethyl-1-(3-methoxyphenyl)-3-(1-naphthalenyloxy)propanamine oxalate] is 0.029 µM; for `COc1ccccc1C(CCOc1cccc2ccccc12)N(C)C` (stereo not shown) [Example 21, N,N-Dimethyl-1-(2-methoxyphenyl)-3-(1-naphthalenyloxy)propanamine oxalate] it is 0.016 µM; for `CNC(CCOc1cccc2ccccc12)c1ccc2c(c1)OCO2` (stereo not shown) [Example 24, oxalate] it is 0.047 µM.
Regarding `CN(C)C(CCOc1cccc2ccccc12)c1ccc(F)cc1` (stereo not shown) [Example 25, N,N-Dimethyl-1-(4-fluorophenyl)-3-(1-naphthalenyloxy)propanamine oxalate], half-maximal inhibition (IC50) required 0.05 µM.
Same read-out and setting: as for `Cc1ccc(C(CCOc2cccc3ccccc23)N(C)C)cc1` (stereo not shown) [Example 26, N,N-Dimethyl-1-(4-methylphenyl)-3-(1-naphthalenyloxy)propanamine oxalate], the figure is 0.08 µM; as for `CN(C)C(CCOc1cccc2ccccc12)c1ccccc1` (stereo not shown) [Example 27, N,N-Dimethyl-1-phenyl-3-(1-naphthalenyloxy)propanamine oxalate], 0.01 µM.
The same measure, in the same setting: as for `CN(C)C(CCOc1ccc(C(F)(F)F)c2ccccc12)c1ccccc1` (stereo not shown) [Example 29, N,N-Dimethyl-1-phenyl-3-[4-(trifluoromethyl)-1-naphthalenyloxy)propanamine oxalate], the figure is 0.8 µM.
The molecule `Cc1ccccc1C(CCOc1cccc2ccccc12)N(C)C` (stereo not shown) [Example 30, N,N-Dimethyl-1-(2-methylphenyl)-3-(1-naphthalenyloxy)propanamine oxalate] returned a half-inhibitory concentration (IC50) of 0.01 µM.
In turn, `CN(C)C(CCOc1cccc2ccccc12)c1ccc(C(F)(F)F)cc1` (stereo not shown) [Example 31, N,N-Dimethyl-1-[4-(trifluoromethyl)phenyl]-3-(1-naphthalenyloxy)propanamineoxalate] yielded an IC50 of 0.195 µM.
`Cc1cccc(C(CCOc2cccc3ccccc23)N(C)C)c1` (stereo not shown) [Example 32, N,N-Dimethyl-1-(3-methylphenyl)-3-(1-naphthalenyloxy)propanamine oxalate]: the IC50 was 0.013 µM.
On to `CNC(CCOc1cccc2ccccc12)c1ccccc1` (stereo not shown) [Example 33, N-Methyl-1-phenyl-3-(1-naphthalenyloxy)propanamine oxalate], for which 0.035 µM corresponded to half-maximal inhibition (IC50).
Still for that read-out and setting: the figure for `CN(C)C(CCOc1ccc(Cl)c2ccccc12)c1ccccc1` (stereo not shown) [Example 34, N,N-Dimethyl-1-phenyl-3-(4-chloro-1-naphthalenyloxy)propanamine oxalate] is 0.088 µM.
Same read-out and setting: as for `NC(CCOc1cccc2ccccc12)c1ccccc1` (stereo not shown) [Example 35, 1-Phenyl-3-(1-naphthalenyloxy)propanamine oxalate], the figure is 0.08 µM.

The same assay, now with this note: at 1000 nM; numbers in parentheses; 50 nM 3H-5HT, 37° C., 5 min.
`COc1ccc(OCCC(N)c2ccccc2)c2ccccc12` (stereo not shown) [Example 4, 1-Phenyl-3-(4-methoxy-1-naphthalenyloxy)propanamine oxalate]: the “percent inhibition at 1000 nM” value is recorded as 39%.
With `NC(CCOc1cccc2ccccc12)c1cccc(C(F)(F)F)c1` (stereo not shown) [Example 8, 1-[3-(Trifluoromethyl)phenyl]-3-(1-naphthalenyloxy)propanamine oxalate], the “percent inhibition at 1000 nM” value is 43%.
The same measure, in the same setting: the figure for `COc1ccccc1C(N)CCOc1cccc2ccccc12` (stereo not shown) [Example 20, 1-(2-Methoxyphenyl)-3-(1-naphthalenyloxy)propanamine oxalate] is 25%.
